In ChEMBL document CHEMBL1125846, “Reevaluating equilibrium and kinetic binding parameters for lipophilic drugs based on a structural model for drug interaction with biological membranes” (J Med Chem, 1991):
pKd: −log10 of the molar value.

Legend:
Rattus norvegicus [1] = species: Rattus norvegicus; assay: Equilibrium dissociation constant based on membrane concentration in rat smooth muscle; assay type: ADME, Muscle tissue
Rattus norvegicus [2] = species: Rattus norvegicus; assay: Equilibrium dissociation constant based on aqueous concentration in rat smooth muscle; assay type: ADME, Muscle tissue
[3] = Partition coefficient of compound in to octanol/buffer; assay type: physicochemical; settings: octanol/water
[4] = sarcoplasmic reticulum membrane
Description: Partition coefficient of compound in to biological membranes

Rattus norvegicus [5] = species: Rattus norvegicus; assay: Equilibrium dissociation constant based on membrane concentration in rat cardiac muscle

Row | Structure (SMILES) | Partition coefficient [3] | Partition coefficient [4] | pKd (Rattus norvegicus [5]) | pKd (Rattus norvegicus [1]) | pKd (Rattus norvegicus [2])
1 | CCOC(=O)C1=C(COCCN)NC(C)=C(C(=O)OC)C1c1ccccc1Cl (stereo not drawn) [AMLODIPINE] | 30 | 19000 | – | 4.64 | 8.92
2 | CN/C(=N/CCSCc1nc[nH]c1C)NC#N [CIMETIDINE] | 1 | – | – | – | –
3 | COC(=O)C1=C(C)NC(C)=C(C(=O)OC)C1c1ccccc1[N+](=O)[O-] [NIFEDIPINE] | – | – | – | 4.64 | 9.39
4 | COCCOC(=O)C1=C(C)NC(C)=C(C(=O)OC(C)C)C1c1cccc([N+](=O)[O-])c1 (stereo not drawn) [NIMODIPINE] | 730 | 6300 | – | 6.16 | 9.96

Second part, led by results:

Row | Partition coefficient [3] | Partition coefficient [4] | pKd (Rattus norvegicus [5]) | Structure (SMILES) | pKd (Rattus norvegicus [1]) | pKd (Rattus norvegicus [2])
5 | 40 | 13000 | 5.74 | COC(=O)C1=C(C)NC(C)=C(C(=O)OCC(C)C)C1c1ccccc1[N+](=O)[O-] (stereo not drawn) [NISOLDIPINE] | – | 9.85
6 | 18 | 1200 | – | CC(C)NCC(O)COc1cccc2ccccc12 (stereo not drawn) [PROPRANOLOL] | – | –
7 | 0.7 | – | – | CC(C)(C)NC[C@H](O)COc1nsnc1N1CCOCC1 [TIMOLOL] | – | –
